The structures appear in SMILES notation.

28 compounds from publication PMC7802075 (ACS Infectious Diseases, 2020) can be followed below.

The first assay deals with T1, LmjIPCS (inositol phosphorylceramide synthase from L. major) (Leishmania major, UniProt E9AFX2).
T1 sequence (E9AFX2 1-338): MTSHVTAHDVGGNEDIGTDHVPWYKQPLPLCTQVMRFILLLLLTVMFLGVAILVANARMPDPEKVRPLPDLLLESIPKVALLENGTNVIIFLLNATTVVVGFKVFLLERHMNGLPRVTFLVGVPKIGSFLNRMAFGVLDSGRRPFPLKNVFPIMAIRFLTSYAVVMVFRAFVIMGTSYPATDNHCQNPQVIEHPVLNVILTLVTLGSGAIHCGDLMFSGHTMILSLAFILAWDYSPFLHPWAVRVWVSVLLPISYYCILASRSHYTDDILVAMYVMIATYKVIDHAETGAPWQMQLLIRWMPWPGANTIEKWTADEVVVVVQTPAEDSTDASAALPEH
The assay can be described thus: biochemical. Also noted: inhibition: dose or concentration left out as unconfirmed.
Settings: not given
Type of assay: biochemical.
For the compound `NC(=O)N1c2ccccc2C=Cc2ccccc21` [CARBAMAZEPINE], the “20mM inhibition LmjIPCS” value came out at 50%.
The same measure, in the same setting: the result for `CC1(C)S[C@@H]2[C@H](NC(=O)C(C(=O)O)c3ccccc3)C(=O)N2[C@H]1C(=O)O` (stereo partly shown) [CARBENICILLIN] reads 52%; that for `CCN(CC)CCOCCOC(=O)C1(c2ccccc2)CCCC1` [CARBETAPENTANE], 51%.
In the case of `CCCC(C)(COC(N)=O)COC(=O)NC(C)C` (stereo not shown) [CARISOPRODOL], the “20mM inhibition LmjIPCS” value was 52%.
For `CC1=C(C(=O)O)N2C(=O)[C@@H](NC(=O)[C@H](N)c3ccc(O)cc3)[C@H]2SC1` [CEFADROXIL], the “20mM inhibition LmjIPCS” value was found to be 37%.
On the same count and under the same terms, for `Cc1nnc(SCC2=C(C(=O)O)N3C(=O)[C@@H](NC(=O)Cn4cnnn4)[C@H]3SC2)s1` [CEFAZOLIN] the value was 35%; for `CO/N=C(\C(=O)N[C@@H]1C(=O)N2C(C(=O)OCOC(=O)C(C)(C)C)=C(/C=C\c3scnc3C)CS[C@H]12)c1csc(N)n1` [CEFDITORIN PIVOXIL], 10%; for `CO/N=C(\C(=O)N[C@@H]1C(=O)N2C(C(=O)O)=C(COC(C)=O)CS[C@H]12)c1csc(N)n1` [CEFOTAXIME], 44%.

Staying with this assay, now noted: NINDS set screen, compound at 20mM (so in the source).
Consider `N.N.O=C([O-])C1(C(=O)[O-])CCC1.[Pt+2]` [CARBOPLATIN], for which the “20mM inhibition LmjIPCS” value stood at 16%.

The assay is the same for the next values; noted with them: NINDS set screen, single concentration printed as 20mM.
As for `C[N+](C)(C)CCOC(N)=O` [CARBACHOL], the “20mM inhibition LmjIPCS” value turned out to be 57%.
Still for that read-out and setting: for `CN(C)CCOC(c1ccc(Cl)cc1)c1ccccn1` (stereo not shown) [CARBINOXAMINE] the value was 36%.

Staying with this assay, now noted: NINDS set screen; read-out: inhibition LmjIPCS.
As to `CC1=C(/C=C/C(C)=C/C=C/C(C)=C/C=C/C=C(C)/C=C/C=C(C)/C=C/C(=O)[C@]2(C)C[C@@H](O)CC2(C)C)C(C)(C)C[C@H](O)C1` [CAPSANTHIN], the inhibition (usually the share of the control response that was lost under treatment) was 33%.
Same read-out and setting: for `COC(=O)N/N=C/c1c[n+]([O-])c2ccccc2[n+]1[O-]` [CARBADOX] the value was 12%.
Still for that read-out and setting: the result for `CO/N=C(\C(=O)N[C@@H]1C(=O)N2C(C(=O)O)=C(COC(N)=O)CS[C@H]12)c1ccco1` [CEFUROXIME] reads 16%.

Staying with this assay, now noted: read-out: 20mM inhibition LmjIPCS.
For `C[C@H](CS)C(=O)N1CCC[C@H]1C(=O)O` [CAPTOPRIL], the inhibition at 20000 µM turned out to be 1.19%.
For `CCCCCCNC(=O)n1cc(F)c(=O)[nH]c1=O` [CARMOFUR], the inhibition at 20000 µM was determined as 14%.
Regarding `O=NN(CCCl)C(=O)NCCCl` [CARMUSTINE], the inhibition at 20000 µM stood at 10%.
For the compound `Cn1nnnc1SCC1=C(C(=O)O)N2C(=O)[C@@H](NC(=O)[C@H](O)c3ccccc3)[C@H]2SC1` [CEFAMANDOLE], the inhibition at 20000 µM is 10%.
`CO[C@@]1(NC(=O)CSCC#N)C(=O)N2C(C(=O)O)=C(CSc3nnnn3C)CS[C@@H]21` [CEFMETAZOLE]: the inhibition at 20000 µM was determined as 13%.
As for `CCN1CCN(C(=O)N[C@@H](C(=O)N[C@@H]2C(=O)N3C(C(=O)O)=C(CSc4nnnn4C)CS[C@H]23)c2ccc(O)cc2)C(=O)C1=O` [CEFOPERAZONE], the inhibition at 20000 µM was 13%.
With `CO[C@@]1(NC(=O)Cc2cccs2)C(=O)N2C(C(=O)O)=C(COC(N)=O)CS[C@@H]21` [CEFOXITIN], the inhibition at 20000 µM came out at 3.72%.
Still for that read-out and setting: the result for `Nc1nc(/C(=C/CC(=O)O)C(=O)N[C@@H]2C(=O)N3C(C(=O)O)=CCS[C@H]23)cs1` [CEFTIBUTEN] reads 18%.

The assay is the same for the next values; noted with them: read-out: inhibition LmjIPCS.
As to `CC1(C)[C@@H](OC(=O)CCC(=O)O)CC[C@]2(C)[C@H]3C(=O)C=C4[C@@H]5C[C@@](C)(C(=O)O)CC[C@]5(C)CC[C@@]4(C)[C@]3(C)CC[C@@H]12` [CARBENOXOLONE], the inhibition came out at 1.66%.
On the same count and under the same terms, the result for `CCOC(=O)n1ccn(C)c1=S` [CARBIMAZOLE] reads 12%.
On the same count and under the same terms, the result for `C[N+](C)(C)CC(O)CC(=O)[O-]` (stereo not shown) [CARNITINE] reads 15%.
`N[C@@H](C(=O)N[C@@H]1C(=O)N2C(C(=O)O)=C(Cl)CS[C@H]12)c1ccccc1` [CEFACLOR]: the inhibition was 10%.

The same assay, now with this note: screening of NINDS set, sheet Screen 1; read-out: inhibition LmjIPCS.
Consider `CC(C(=O)O)c1ccc2c(c1)[nH]c1ccc(Cl)cc12` (stereo not shown) [CARPROFEN], for which the inhibition was determined as 7%.
For `CO/N=C(\C(=O)N[C@@H]1C(=O)N2C(C(=O)O)=C(CSc3nc(=O)c(=O)[nH]n3C)CS[C@H]12)c1csc(N)n1` [CEFTRIAXONE], the inhibition worked out at 5.34%.
